From ChEMBL document CHEMBL4507278 (2021)

Columns and labels:
[1] = biological target: C-C chemokine receptor type 1 (Homo sapiens, UniProt P32246); experiment: Ca flux
[2] = test system: Epidermal growth factor receptor (Homo sapiens), P00533 [UNDEFINED MUTATION]; conditions: Compound concentration 1000.0 nM
[3] = biological target: Leukocyte tyrosine kinase receptor (Homo sapiens) (UniProt P29376); conditions: Compound concentration 1000.0 nM
[4] = biological target: Alpha-1B adrenergic receptor (Homo sapiens) (UniProt P35368); conditions: Compound concentration 10.0 uM
[5] = biological target: T1, Alpha-1D adrenergic receptor (Homo sapiens) (UniProt P25100); experiment: ALPHA1D/H Eurofins-Panlabs selectivity data (BI); conditions: Compound concentration 10.0 uM
T1 sequence (whole entry): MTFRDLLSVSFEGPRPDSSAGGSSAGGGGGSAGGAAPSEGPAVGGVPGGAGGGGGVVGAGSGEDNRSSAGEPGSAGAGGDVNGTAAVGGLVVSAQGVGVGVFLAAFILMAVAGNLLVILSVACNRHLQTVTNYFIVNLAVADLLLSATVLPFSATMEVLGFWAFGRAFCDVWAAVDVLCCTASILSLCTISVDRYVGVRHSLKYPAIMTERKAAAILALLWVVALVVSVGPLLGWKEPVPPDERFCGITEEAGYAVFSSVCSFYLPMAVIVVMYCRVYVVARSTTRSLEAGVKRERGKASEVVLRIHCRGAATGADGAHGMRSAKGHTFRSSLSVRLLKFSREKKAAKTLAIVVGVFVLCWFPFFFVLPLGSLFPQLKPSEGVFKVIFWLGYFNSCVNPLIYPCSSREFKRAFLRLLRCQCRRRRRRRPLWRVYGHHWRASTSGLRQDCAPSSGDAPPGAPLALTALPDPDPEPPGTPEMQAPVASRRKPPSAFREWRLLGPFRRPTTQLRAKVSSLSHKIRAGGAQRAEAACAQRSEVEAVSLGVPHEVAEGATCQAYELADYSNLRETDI

[6] = biological target: Beta-2 adrenergic receptor (Homo sapiens) (UniProt P07550); experiment: BETA2/HU Eurofins-Panlabs selectivity data (BI); conditions: Compound concentration 10.0 uM
[7] = biological target: Voltage-dependent L-type calcium channel subunit alpha-1C (DHP site) (Rattus norvegicus, UniProt P22002); experiment: CA+/DHPSI/RA Eurofins-Panlabs selectivity data (BI); conditions: compound concentration 10 uM, read-out: % Ctrl
[8] = biological target: Voltage-dependent N-type calcium channel subunit alpha-1B (Rattus norvegicus) (UniProt Q02294); experiment: CA+/N/RA Eurofins-Panlabs selectivity data (BI); conditions: Compound concentration 10.0 uM
[9] = biological target: Cannabinoid receptor 1 (Homo sapiens) (UniProt P21554); experiment: CB1 Eurofins-Panlabs selectivity data (BI); conditions: Compound concentration 10.0 uM
[10] = biological target: D(2) dopamine receptor (Homo sapiens) (UniProt P14416); experiment: D2S/HU Eurofins-Panlabs selectivity data (BI); conditions: Compound concentration 10.0 uM
[11] = biological target: Sodium-dependent dopamine transporter (Homo sapiens) (UniProt Q01959); experiment: DATRANS/H Eurofins-Panlabs selectivity data (BI); conditions: Compound concentration 10.0 uM
[12] = biological target: Delta-type opioid receptor (Homo sapiens) (UniProt P41143); experiment: DELTA/HU Eurofins-Panlabs selectivity data (BI); conditions: Compound concentration 10.0 uM
[13] = biological target: Gamma-aminobutyric acid receptor subunit alpha-1 (Rattus norvegicus) (UniProt P62813); experiment: GABAACENTR Eurofins-Panlabs selectivity data (BI); conditions: Compound concentration 10.0 uM
[14] = biological target: Histamine H1 receptor (Homo sapiens) (UniProt P35367); experiment: H1/H Eurofins-Panlabs selectivity data (BI); conditions: Compound concentration 10.0 uM
[15] = biological target: ATP-sensitive inward rectifier potassium channel 1 isoform X1 (Mesocricetus auratus) (UniProt A0A1U8CU73); experiment: K+/KATP/HA Eurofins-Panlabs selectivity data (BI); conditions: Compound concentration 10.0 uM
[16] = biological target: Muscarinic acetylcholine receptor M2 (Homo sapiens) (UniProt P08172); experiment: M2/HU Eurofins-Panlabs selectivity data (BI); conditions: Compound concentration 10.0 uM
[17] = biological target: Melatonin receptor type 1A (Homo sapiens) (UniProt P48039); experiment: MT1/H Eurofins-Panlabs selectivity data (BI); conditions: Compound concentration 10.0 uM
[18] = biological target: Nicotinic acetylcholine receptor alpha-1/beta-1 (Homo sapiens) (UniProt P02708+P11230); experiment: NACH_BS_N/H Eurofins-Panlabs selectivity data (BI); assay type: protein-complex assay; conditions: Compound concentration 10.0 uM
[19] = biological target: Sodium-dependent noradrenaline transporter (Homo sapiens) (UniProt P23975); experiment: NETRANS/H Eurofins-Panlabs selectivity data (BI); conditions: Compound concentration 10.0 uM
[20] = biological target: Glutamate receptor ionotropic, NMDA 1 (Rattus norvegicus) (UniProt P35439); experiment: NMDAGLSI/RA Eurofins-Panlabs selectivity data (BI); conditions: Compound concentration 10.0 uM
[21] = biological target: P2Y purinoceptor 1 (Rattus norvegicus) (UniProt P49651); experiment: P2Y/RAT Eurofins-Panlabs selectivity data (BI); conditions: Compound concentration 10.0 uM
[22] = biological target: Prostaglandin E2 receptor EP4 subtype (Homo sapiens) (UniProt P35408); experiment: PEP4_HU Eurofins-Panlabs selectivity data (BI); conditions: Compound concentration 10.0 uM
[23] = biological target: Protein kinase C alpha type (Mus musculus) (UniProt P20444); experiment: PHORBOLE/M Eurofins-Panlabs selectivity data (BI); conditions: Compound concentration 10.0 uM
[24] = biological target: Sigma non-opioid intracellular receptor 1 (Homo sapiens) (UniProt Q99720); experiment: SIGMA1/HU Eurofins-Panlabs selectivity data (BI); conditions: Compound concentration 10.0 uM
[25] = biological target: Androgen receptor (Rattus norvegicus) (UniProt P15207); experiment: TESTOST/RA Eurofins-Panlabs selectivity data (BI); conditions: Compound concentration 10.0 uM
[26] = biological target: Thyroid hormone receptor alpha (Rattus norvegicus) (UniProt P63059); experiment: THYROID HORM Eurofins-Panlabs selectivity data (BI); conditions: Compound concentration 10.0 uM
[27] = biological target: Neuropeptide Y receptor type 1 (Homo sapiens) (UniProt P25929); experiment: Y1/HU Eurofins-Panlabs selectivity data (BI); conditions: Compound concentration 10.0 uM
[28] = biological target: Neuropeptide Y receptor type 2 (Homo sapiens) (UniProt P49146); experiment: Y2/HU Eurofins-Panlabs selectivity data (BI); conditions: Compound concentration 10.0 uM

Chain of Muscarinic acetylcholine receptor M2 (Homo sapiens) (P08172 whole entry): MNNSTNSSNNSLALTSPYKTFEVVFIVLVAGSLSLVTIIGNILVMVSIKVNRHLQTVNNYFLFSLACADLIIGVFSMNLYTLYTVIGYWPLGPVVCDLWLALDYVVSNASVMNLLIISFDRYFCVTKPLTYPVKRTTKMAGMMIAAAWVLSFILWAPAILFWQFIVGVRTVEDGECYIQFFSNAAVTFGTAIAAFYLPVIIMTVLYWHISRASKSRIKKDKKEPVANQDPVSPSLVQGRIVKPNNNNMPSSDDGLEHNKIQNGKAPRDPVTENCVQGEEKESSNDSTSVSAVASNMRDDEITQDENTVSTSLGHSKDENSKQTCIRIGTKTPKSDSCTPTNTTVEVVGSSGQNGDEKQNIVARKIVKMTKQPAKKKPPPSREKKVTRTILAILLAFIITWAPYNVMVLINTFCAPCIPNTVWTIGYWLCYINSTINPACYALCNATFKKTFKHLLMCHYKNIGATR
Chain of Leukocyte tyrosine kinase receptor (Homo sapiens) (P29376 whole entry): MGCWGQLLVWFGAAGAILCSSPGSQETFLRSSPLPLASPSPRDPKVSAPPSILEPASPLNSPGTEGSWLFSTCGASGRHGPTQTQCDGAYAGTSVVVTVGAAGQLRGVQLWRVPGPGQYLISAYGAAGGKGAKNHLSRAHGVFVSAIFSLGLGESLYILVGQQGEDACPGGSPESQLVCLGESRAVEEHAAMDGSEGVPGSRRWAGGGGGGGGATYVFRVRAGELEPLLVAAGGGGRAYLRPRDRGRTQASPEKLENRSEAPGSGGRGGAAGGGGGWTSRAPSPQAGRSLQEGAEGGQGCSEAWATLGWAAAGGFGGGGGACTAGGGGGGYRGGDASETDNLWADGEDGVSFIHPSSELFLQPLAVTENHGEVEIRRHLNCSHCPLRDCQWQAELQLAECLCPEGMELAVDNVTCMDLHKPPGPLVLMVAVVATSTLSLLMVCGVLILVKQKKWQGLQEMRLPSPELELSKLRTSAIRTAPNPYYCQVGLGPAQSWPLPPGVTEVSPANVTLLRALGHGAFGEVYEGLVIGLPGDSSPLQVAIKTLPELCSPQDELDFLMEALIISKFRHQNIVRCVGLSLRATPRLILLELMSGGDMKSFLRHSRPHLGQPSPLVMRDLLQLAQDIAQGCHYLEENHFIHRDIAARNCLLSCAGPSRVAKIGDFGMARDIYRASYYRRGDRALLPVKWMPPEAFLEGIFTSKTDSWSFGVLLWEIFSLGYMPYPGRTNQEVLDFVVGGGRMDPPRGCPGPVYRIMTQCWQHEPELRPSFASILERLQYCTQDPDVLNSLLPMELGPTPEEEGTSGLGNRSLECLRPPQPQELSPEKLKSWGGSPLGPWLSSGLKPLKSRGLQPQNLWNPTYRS
Chain of Melatonin receptor type 1A (Homo sapiens) (P48039 whole entry): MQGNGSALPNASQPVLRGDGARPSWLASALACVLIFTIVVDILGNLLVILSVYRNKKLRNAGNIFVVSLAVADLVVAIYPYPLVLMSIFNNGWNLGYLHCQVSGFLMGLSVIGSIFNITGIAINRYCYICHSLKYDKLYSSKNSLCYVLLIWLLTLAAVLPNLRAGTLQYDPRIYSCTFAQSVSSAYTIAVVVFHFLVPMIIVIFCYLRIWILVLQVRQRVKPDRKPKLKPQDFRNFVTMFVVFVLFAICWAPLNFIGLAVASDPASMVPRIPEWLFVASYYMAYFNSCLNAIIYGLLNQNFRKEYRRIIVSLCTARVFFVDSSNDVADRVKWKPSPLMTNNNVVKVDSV
Chain of Alpha-1B adrenergic receptor (Homo sapiens) (P35368 whole entry): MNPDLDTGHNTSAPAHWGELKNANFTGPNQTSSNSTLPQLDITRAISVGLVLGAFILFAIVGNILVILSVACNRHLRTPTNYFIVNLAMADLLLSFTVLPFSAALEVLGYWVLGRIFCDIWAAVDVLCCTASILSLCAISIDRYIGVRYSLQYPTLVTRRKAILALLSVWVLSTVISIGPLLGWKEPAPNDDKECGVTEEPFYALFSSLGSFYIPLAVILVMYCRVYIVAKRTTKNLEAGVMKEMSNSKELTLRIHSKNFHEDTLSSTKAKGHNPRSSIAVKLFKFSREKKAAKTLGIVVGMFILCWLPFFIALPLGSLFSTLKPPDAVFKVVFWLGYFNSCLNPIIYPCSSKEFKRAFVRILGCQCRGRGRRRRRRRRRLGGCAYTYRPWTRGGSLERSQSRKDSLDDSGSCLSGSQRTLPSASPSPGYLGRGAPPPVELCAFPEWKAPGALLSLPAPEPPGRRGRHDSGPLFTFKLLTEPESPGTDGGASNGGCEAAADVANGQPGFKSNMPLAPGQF
Chain of P2Y purinoceptor 1 (Rattus norvegicus) (P49651 whole entry): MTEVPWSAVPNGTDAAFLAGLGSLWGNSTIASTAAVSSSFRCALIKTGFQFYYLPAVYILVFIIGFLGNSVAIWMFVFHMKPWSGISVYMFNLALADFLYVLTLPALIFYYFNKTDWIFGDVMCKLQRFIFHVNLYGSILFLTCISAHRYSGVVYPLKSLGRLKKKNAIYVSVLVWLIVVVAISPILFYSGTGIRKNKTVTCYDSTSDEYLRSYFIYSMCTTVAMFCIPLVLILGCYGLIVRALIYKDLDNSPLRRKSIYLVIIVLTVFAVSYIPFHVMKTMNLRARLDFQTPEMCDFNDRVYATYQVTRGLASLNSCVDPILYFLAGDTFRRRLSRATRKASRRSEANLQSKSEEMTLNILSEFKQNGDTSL
Chain of Voltage-dependent L-type calcium channel subunit alpha-1C (DHP site) (P22002 whole entry): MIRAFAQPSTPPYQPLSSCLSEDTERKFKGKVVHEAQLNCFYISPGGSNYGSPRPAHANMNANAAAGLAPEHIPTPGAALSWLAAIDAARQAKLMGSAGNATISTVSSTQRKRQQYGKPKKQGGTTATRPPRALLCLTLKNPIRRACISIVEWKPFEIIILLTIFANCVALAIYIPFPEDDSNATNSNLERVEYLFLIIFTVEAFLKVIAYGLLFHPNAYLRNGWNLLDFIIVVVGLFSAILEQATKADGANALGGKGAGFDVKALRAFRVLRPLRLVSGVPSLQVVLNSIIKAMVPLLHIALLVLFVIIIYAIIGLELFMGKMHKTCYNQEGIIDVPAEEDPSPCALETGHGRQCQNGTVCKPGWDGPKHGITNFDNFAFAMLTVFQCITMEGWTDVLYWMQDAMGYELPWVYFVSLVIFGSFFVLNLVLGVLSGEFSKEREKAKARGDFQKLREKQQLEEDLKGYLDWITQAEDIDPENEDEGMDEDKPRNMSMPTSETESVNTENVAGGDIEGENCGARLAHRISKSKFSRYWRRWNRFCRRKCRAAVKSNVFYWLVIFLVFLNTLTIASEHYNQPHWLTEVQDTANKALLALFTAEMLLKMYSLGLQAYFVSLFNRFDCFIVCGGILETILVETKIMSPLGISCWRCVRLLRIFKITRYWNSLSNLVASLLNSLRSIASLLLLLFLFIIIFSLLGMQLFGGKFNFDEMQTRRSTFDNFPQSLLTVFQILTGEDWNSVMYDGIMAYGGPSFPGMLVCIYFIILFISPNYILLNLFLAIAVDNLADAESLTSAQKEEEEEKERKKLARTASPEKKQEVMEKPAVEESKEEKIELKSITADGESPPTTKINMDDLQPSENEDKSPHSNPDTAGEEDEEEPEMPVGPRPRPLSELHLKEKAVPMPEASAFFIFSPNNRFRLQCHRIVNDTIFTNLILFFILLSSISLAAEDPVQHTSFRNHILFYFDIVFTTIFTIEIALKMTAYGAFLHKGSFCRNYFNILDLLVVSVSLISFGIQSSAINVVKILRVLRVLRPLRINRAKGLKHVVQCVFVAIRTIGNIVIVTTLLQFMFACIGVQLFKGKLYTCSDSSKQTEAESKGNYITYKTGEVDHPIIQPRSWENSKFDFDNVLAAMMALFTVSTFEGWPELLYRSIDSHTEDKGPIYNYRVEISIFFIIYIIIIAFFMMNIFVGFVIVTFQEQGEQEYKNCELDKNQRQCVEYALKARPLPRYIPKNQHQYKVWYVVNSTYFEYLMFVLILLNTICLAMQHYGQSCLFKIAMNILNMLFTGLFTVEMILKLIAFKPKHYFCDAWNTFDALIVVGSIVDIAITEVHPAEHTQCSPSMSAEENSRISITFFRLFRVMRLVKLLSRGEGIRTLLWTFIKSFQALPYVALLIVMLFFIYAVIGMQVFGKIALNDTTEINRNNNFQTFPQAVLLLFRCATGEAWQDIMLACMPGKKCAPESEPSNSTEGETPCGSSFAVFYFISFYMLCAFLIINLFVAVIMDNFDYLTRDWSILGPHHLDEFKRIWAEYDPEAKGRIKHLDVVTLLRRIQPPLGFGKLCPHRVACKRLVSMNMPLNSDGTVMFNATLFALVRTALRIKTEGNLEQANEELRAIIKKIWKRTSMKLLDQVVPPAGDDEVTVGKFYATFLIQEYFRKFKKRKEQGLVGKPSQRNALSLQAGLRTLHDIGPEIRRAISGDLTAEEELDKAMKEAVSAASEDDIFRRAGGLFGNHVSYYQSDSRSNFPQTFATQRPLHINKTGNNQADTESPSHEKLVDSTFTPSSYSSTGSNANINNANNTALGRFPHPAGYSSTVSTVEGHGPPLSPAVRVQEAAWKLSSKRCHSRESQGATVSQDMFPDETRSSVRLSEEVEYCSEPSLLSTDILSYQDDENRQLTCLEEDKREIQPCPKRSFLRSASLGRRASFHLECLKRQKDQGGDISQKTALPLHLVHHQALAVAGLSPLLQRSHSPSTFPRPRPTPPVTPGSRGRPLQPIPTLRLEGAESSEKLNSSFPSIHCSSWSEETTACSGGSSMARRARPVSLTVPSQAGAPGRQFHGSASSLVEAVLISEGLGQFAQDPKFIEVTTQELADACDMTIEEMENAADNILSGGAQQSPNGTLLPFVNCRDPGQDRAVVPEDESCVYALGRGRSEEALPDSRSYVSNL
Chain of Sigma non-opioid intracellular receptor 1 (Homo sapiens) (Q99720 whole entry): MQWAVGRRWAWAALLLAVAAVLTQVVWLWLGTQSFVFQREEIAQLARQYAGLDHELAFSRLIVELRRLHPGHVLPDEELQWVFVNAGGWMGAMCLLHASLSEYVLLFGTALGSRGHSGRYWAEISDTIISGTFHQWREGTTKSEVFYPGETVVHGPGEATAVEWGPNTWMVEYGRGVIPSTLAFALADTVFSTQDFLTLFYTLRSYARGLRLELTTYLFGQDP

CS(=O)(=O)NCC[C@H](NC(=O)c1cncc2c1cnn2-c1ccc(F)cc1)c1ccnc(S(C)(=O)=O)c1 [BI 9307]
IC50 [1]: > 3000 nM (not active) | residual activity [2]: 71% | residual activity [3]: 100% | inhibition [4]: 15.8%

CS(=O)(=O)c1cc(C2(NC(=O)c3cncc4c3cnn4-c3ccc(F)cc3)CC2)ccn1 [BI 639667]
residual activity [5]: 82% | residual activity [6]: 96% | activity at 10 µM [7]: 71% (not active) | residual activity [8]: 90% | residual activity [9]: 72% | residual activity [10]: 93% | residual activity [11]: 28% | residual activity [12]: 91% | residual activity [13]: 104% | residual activity [14]: 100% | residual activity [15]: 100% | residual activity [16]: 99% | residual activity [17]: 79% | residual activity [18]: 100% | residual activity [19]: 82% | residual activity [20]: 96% | residual activity [21]: 88% | residual activity [22]: 97% | residual activity [23]: 93% | residual activity [24]: 105% | residual activity [25]: 91% | residual activity [26]: 74% | residual activity [27]: 101% | residual activity [28]: 98%
